Measured values reported in PubChem BioAssay AID1963858 (Molecular Pharmacology Branch, DTP, NCI, 2024).

Test system: HOP-62 multicell spheroids with HUVEC/MSC, viability
Assay: Anticancer human tumor HOP-62 cell line growth inhibition [KRAS2];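 also: viability read after a week of compound exposure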;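 as to viability, T/C: 100% = DMSO vehicle-treated spheroids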
Settings: for viability, T/C: stronger effect = lower value; active = viability on the fitted dose curve at most 10% of control; inactive = the rest
Summary of the method: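 Combination screen of spheroid viability in tumor-cell co-cultures with endothelial (HUVEC) and mesenchymal stem cell stroma. Each agent was tested in half-log dilutions, topping at clinical Cmax or at 10 microM without a known Cmax.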

[1] = curve of first compound, second compound 0.1 µM
[2] = curve of first compound, second compound 0.316 µM
[3] = curve of first compound, second compound 1 µM
[4] = curve of first compound, second compound 3.16 µM
[5] = curve of first compound, second compound 10 µM
[6] = second compound 0.1 µM, first compound 0.0316 µM
[7] = second compound 0.1 µM, first compound 0.1 µM
[8] = second compound 0.316 µM, first compound 0.0316 µM
[9] = second compound 0.316 µM, first compound 0.1 µM
[10] = second compound 1 µM, first compound 0.0316 µM
[11] = second compound 1 µM, first compound 0.1 µM
[12] = second compound 3.16 µM, first compound 0.0316 µM
[13] = second compound 3.16 µM, first compound 0.1 µM
[14] = second compound 10 µM, first compound 0.0316 µM
[15] = second compound 10 µM, first compound 0.1 µM

Cn1ncnc1[C@H]1c2n[nH]c(=O)c3cc(F)cc(c23)N[C@@H]1c1ccc(F)cc1 + C=CC(=O)N1CCN(c2nc(=O)n(-c3c(C)ccnc3C(C)C)c3nc(-c4c(O)cccc4F)c(F)cc23)C(C)C1
> 0.1 µM: IC50 [3] | IC50 [4]
inactive: viability, T/C (second compound 0.1 µM, first compound 0.000316 µM) 64.7% | viability, T/C (second compound 0.1 µM, first compound 0.001 µM) 68.3% | viability, T/C (second compound 0.1 µM, first compound 0.00316 µM) 51.5% | viability, T/C (second compound 0.1 µM, first compound 0.01 µM) 58.3% | viability, T/C [6] 46.8% | viability, T/C [7] 43.5% | viability, T/C (second compound 0.316 µM, first compound 0.000316 µM) 68.5% | viability, T/C (second compound 0.316 µM, first compound 0.001 µM) 69.2% | viability, T/C (second compound 0.316 µM, first compound 0.00316 µM) 53% | viability, T/C (second compound 0.316 µM, first compound 0.01 µM) 56.1% | viability, T/C [8] 41.5% | viability, T/C [9] 41.5% | viability, T/C (second compound 1 µM, first compound 0.000316 µM) 61.9% | viability, T/C (second compound 1 µM, first compound 0.001 µM) 63.8% | viability, T/C (second compound 1 µM, first compound 0.00316 µM) 63% | viability, T/C (second compound 1 µM, first compound 0.01 µM) 54.4% | viability, T/C [10] 61% | viability, T/C [11] 59.4% | viability, T/C (second compound 3.16 µM, first compound 0.000316 µM) 66.6% | viability, T/C (second compound 3.16 µM, first compound 0.001 µM) 64.3% | viability, T/C (second compound 3.16 µM, first compound 0.00316 µM) 57% | viability, T/C (second compound 3.16 µM, first compound 0.01 µM) 66.9% | viability, T/C [12] 52.9% | viability, T/C [13] 49% | viability, T/C (second compound 10 µM, first compound 0.000316 µM) 40.1% | viability, T/C (second compound 10 µM, first compound 0.001 µM) 46.6% | viability, T/C (second compound 10 µM, first compound 0.00316 µM) 42.9% | viability, T/C (second compound 10 µM, first compound 0.01 µM) 36.4% | viability, T/C [14] 38% | viability, T/C [15] 33.9%
0.0233 µM: IC50 [1]
< 0.000316 µM: IC50 [5]
0.0135 µM: IC50 [2]

CC1(C)CCC(CN2CCN(c3ccc(C(=O)NS(=O)(=O)c4ccc(NCC5CCOCC5)c([N+](=O)[O-])c4)c(Oc4cnc5[nH]ccc5c4)c3)CC2)=C(c2ccc(Cl)cc2)C1
inactive: viability, T/C (compound 0.0316 µM) 97.8% [middle of 5 runs] | viability, T/C (compound 0.1 µM) 98.4% [middle of 5 runs] | viability, T/C (compound 0.316 µM) 93.6% [middle of 5 runs] | viability, T/C (compound 1 µM) 89.2% [middle of 5 runs] | viability, T/C (compound 3.16 µM) 73.1% [middle of 5 runs] | viability, T/C (compound 10 µM) 26.2% [middle of 5 runs]
5.7 µM [middle of 5 runs]: IC50 (curve of compound)

CC1(C)CCC(CN2CCN(c3ccc(C(=O)NS(=O)(=O)c4ccc(NCC5CCOCC5)c([N+](=O)[O-])c4)c(Oc4cnc5[nH]ccc5c4)c3)CC2)=C(c2ccc(Cl)cc2)C1 + CNCc1ccccc1-c1csc(C(C)Nc2nc(C)nc3cc(OC)c(OC)cc23)c1
3.38 µM: IC50 [3]
4.57 µM: IC50 [2]
< 0.0316 µM: IC50 [4] | IC50 [5]
inactive: viability, T/C [6] 92.1% | viability, T/C [7] 89.5% | viability, T/C (second compound 0.1 µM, first compound 0.316 µM) 82.5% | viability, T/C (second compound 0.1 µM, first compound 1 µM) 95.3% | viability, T/C (second compound 0.1 µM, first compound 3.16 µM) 71.6% | viability, T/C (second compound 0.1 µM, first compound 10 µM) 29.5% | viability, T/C [8] 81.2% | viability, T/C [9] 77% | viability, T/C (second compound 0.316 µM, first compound 0.316 µM) 76.5% | viability, T/C (second compound 0.316 µM, first compound 1 µM) 81.6% | viability, T/C (second compound 0.316 µM, first compound 3.16 µM) 61.8% | viability, T/C (second compound 0.316 µM, first compound 10 µM) 24.9% | viability, T/C [10] 90.1% | viability, T/C [11] 76.2% | viability, T/C (second compound 1 µM, first compound 0.316 µM) 67.8% | viability, T/C (second compound 1 µM, first compound 1 µM) 73.1% | viability, T/C (second compound 1 µM, first compound 3.16 µM) 54% | viability, T/C (second compound 1 µM, first compound 10 µM) 14.9% | viability, T/C [12] 1.65% | viability, T/C [13] 25.9% | viability, T/C (second compound 3.16 µM, first compound 0.316 µM) 17.9% | viability, T/C (second compound 3.16 µM, first compound 1 µM) 40.3% | viability, T/C (second compound 3.16 µM, first compound 3.16 µM) 13.5% | viability, T/C (second compound 3.16 µM, first compound 10 µM) 1.45%
5.71 µM: IC50 [1]
active: viability, T/C [14] 0.12% | viability, T/C [15] 0.16% | viability, T/C (second compound 10 µM, first compound 0.316 µM) 0.16% | viability, T/C (second compound 10 µM, first compound 1 µM) 0.18% | viability, T/C (second compound 10 µM, first compound 3.16 µM) 0.15% | viability, T/C (second compound 10 µM, first compound 10 µM) 0.22%
